pIC50: −log10 of the molar value. Counter-ions that a name gives are not always drawn.
Tests used:
[1] = molecular target: T1, angiotensin converting enzyme = ACE (Oryctolagus cuniculus, UniProt P12822); assay: In vitro ACE inhibition (ACEI), release of histidyl-leucine from hippuryl-histidyl-leucine, rabbit lung tissue preparation; format: biochemical, Kaninchen; conditions: incubation 30 min at 37°
T1 construct: Dieses Enzym wird aus Lungen von erwachsenen männlichen Kaninchen in Tris-Puffer; from tissue; host or cells: lung of adult male rabbits
T1 sequence (P12822 34-1310): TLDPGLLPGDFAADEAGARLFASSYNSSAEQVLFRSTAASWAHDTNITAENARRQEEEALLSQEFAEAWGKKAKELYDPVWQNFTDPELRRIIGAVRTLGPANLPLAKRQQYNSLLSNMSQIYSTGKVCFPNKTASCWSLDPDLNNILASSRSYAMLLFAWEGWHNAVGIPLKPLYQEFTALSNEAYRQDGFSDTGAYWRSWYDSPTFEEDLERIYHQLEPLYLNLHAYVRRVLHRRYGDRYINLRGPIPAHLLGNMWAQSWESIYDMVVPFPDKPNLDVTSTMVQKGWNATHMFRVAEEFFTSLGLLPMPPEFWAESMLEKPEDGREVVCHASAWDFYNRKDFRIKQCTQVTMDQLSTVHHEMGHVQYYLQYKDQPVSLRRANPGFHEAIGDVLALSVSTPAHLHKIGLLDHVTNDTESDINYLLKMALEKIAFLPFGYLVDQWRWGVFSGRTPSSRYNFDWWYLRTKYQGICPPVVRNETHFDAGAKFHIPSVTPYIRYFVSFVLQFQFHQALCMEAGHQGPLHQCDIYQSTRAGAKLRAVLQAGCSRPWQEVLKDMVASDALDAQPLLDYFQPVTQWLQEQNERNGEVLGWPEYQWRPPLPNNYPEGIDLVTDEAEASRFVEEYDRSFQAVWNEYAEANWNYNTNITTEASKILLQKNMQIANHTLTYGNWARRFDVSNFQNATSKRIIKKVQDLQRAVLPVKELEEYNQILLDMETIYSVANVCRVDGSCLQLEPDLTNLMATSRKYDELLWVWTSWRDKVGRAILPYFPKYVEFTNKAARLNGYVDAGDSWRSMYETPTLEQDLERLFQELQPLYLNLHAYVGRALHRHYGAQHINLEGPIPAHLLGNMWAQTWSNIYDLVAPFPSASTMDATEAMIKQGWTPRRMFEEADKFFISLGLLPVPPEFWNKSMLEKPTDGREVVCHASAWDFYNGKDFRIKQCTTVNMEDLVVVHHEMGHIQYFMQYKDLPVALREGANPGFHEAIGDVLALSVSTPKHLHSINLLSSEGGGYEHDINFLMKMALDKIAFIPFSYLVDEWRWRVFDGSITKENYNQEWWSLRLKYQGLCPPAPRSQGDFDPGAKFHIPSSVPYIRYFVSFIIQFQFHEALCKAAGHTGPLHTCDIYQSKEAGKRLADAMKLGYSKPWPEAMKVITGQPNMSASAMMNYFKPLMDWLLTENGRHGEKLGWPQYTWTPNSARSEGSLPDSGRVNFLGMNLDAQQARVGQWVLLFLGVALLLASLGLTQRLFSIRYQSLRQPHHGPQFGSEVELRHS
From the text: Die in vitro Hemmung des Enzyms, welches das Angiotensin umwandelt, kann bei den Verbindungen dieser Erfindung analog zu Biochim. Biophys. Acta 293, 451 (1973) nachgewiesen werden. Gemäss dieser Methode werden die genannten Verbindungen in ungefähr 1 mMol Konzentrationen in Phosphatpuffer, welcher von aussen mit Eis gekühlt wird, aufgelöst. Zu diesen Lösungen gibt man zuerst verschiedene µl-Mengen von 1 mMolarem Histidyl-leucin in Phosphatpuffer und dann 100 pl von 5mMolarem Hippuryl-histidyl-leucin in Phosphatpuffer und 50 pl des Angiotensin-umwandelnden Enzyms. Dieses Enzym wird aus Lungen von erwachsenen männlichen Kaninchen in Tris-Puffer, der Kalium-und Magnesiumchlorid und auch Rohrzucker enthält, frisch hergestellt. Die genannten Lösungen werden 30 Minuten bei 37° inkubiert und die weitere Reaktion wird durch Hinzufügen von 0,75 ml einer 0,6-normalen wässerigen Natriumhydroxidlösung gestoppt. Dann gibt man bei Zimmertemperatur 100 µl o-Phthalaldehyd und nach 10 Minuten 100 µl 6-normaler Chlorwasserstoffsäure dazu. Die Proben werden in einem Spektroghotometer bei 360 nm mit Wasser verglichen und ihre optische Dichte wird bestimmt. Diese Werte werden durch einen Konversionsfaktor einer Standard-Kurve angepasst, wobei man die während der genannten Inkubation von 30 Minuten gebildete Histidyl-leucin-Menge in Nanomolen erhält. Die Ergebnisse werden, um den IC50-Wert zu bestimmen, gegenüber den Wirkstoff-Konzentrationen graphisch als Kurve dargestellt. Dieser Wert bedeutet diejenige Wirkstoff-Konzentration, welche die Hälfte der Aktivität einer Kontrollprobe, die keinen Wirkstoff enthält, ergibt. Die genannten repräsentativen Verbindungen der vorliegenden Erfindung sind auch in diesem in vitro Testsystem, bis zu dem IC50-Wert von 39 nM und darunter, sehr wirksam.
Die Prüfung der Wirkung von Verbindungen ist gemäss den Methoden für die Auswertung der Hemmung des Enzyms, welches das Angiotensin umwandelt [angiotensin converting enzyme = ACE] durchgeführt worden. […]

[2] = test system: durch Angiotensin I (AI) hervorgerufenen Blutdrucksteigerung; assay: Inhibition of the blood pressure rise caused by angiotensin I in anaesthetised normotensive rats; format: in vivo, Ratte; conditions: rat, mean value 30 min after administration
From the text: Die neuen Verbindungen zeigen auch eine Hemmwirkung auf das Ansprechen des Blutdrucks von normotensiven Ratten auf Angiotensin I. Das Enzym Renin verursacht unter normalen Verhältnissen eine spezifische Hydrolyse des zirkulierenden Renin-Substrat-Proteins. Diese Hydrolyse ergibt das Angiotensin I, welches durch die Einwirkung des genannten Enzyms, welches das Angiotensin umwandelt, in das stark gefässverengernde Angiotensin II weiter hydrolysiert wird. Durch Hemmung des genannten Enzyms wird die Entstehung des Angiotensins II aus I verhindert. Diese Hemmung dämpft daher jedes Ansprechen des Blutdrucks nach einer Angiotenin-I-Attacke.
Der entsprechende in vivo Test wird mit männlichen, normotensiven Ratten, welche mit 100-120 mg/kg intraperitoneal verabreichtem Natriumsalz des Aethyl-(l-methylpropyl)-malonylthioharnstoffs narkotisiert sind, vorgenommen. Eine femurale Arterie und eine Wadenvene werden mit je einer Hohlnadel für die direkte Messung des Blutdrucks und für die intravenöse Verabreichung des Angiotensins I und der erfindungsgemässen Verbindungen, versehen. Nach der Stabilisierung des basalen Blutdrucks, wird die Druckänderung nach drei, in 5-minutigen Intervallen durchgeführten, Reizungen mit 0,33 µg/kg Angiotensin I i.v., bestimmt. Druckänderungen werden auch 5, 10, 15, 30 und 60 Minuten nach entweder intravenöser oder peroraler Verabreichung (mit Magensonde) der zu prüfenden Verbindungen bestimmt. Die letztgenannten Druckänderungen werden mit den Anfangswerten verglichen. Jede festgestellte Abnahme vom Ansprechen des Blutdrucks ist ein Hinweis auf die Hemmung des Enzyms, welches das Angiotensin umwandelt. Diese Abnahme kann bis zu 80%, nach Dosen von 10 mg/kg i.v. oder 50 mg/kg p.o., betragen und bis 60 Minuten lang andauern.
In der in vivo Prüfungsmethode wird zuerst durch Verabreichung des Angiotensins 1 (AI) an das Versuchstier eine Blutdrucksteigerung hervorgerufen. Es wird dann die Hemmung der einzelnen Verbindungen auf diese Blutdrucksteigerung gemessen.
II. Methode der Hemmung der durch Angiotensin I (AI) hervorgerufenen Blutdrucksteigerung, durch intravenöse Verabreichung der Testverbindung (Z AI-Hemmung) In diesen Untersuchungen wird wie oben beschrieben, je ein Katheter in eine femurale Arterie und in eine Wadenvene der Ratte eingeführt.
Der arterielle Druck wurde von dem Arterienkatheter aus registriert, während man Angiotensin I (AI) und die einzelnen Testverbindungen durch den Venenkatheter injiziert hatte. Die Hemmung der durch Angiotensin I verursachten Blutdrucksteigerung ist in der Tabelle als Durchschnittswert 30 Minuten nach der Verabreichung von ausgewählten Dosen der jeweiligen Verbindung wiedergegeben. Dabei werden solche Dosierungen ausgewählt, so dass u.a. der ID50 (i.v.)-Wert ermittelt werden kann.

SMILES | pIC50 [1] | % AI Hemmungen ([2]; i.v. Dosis 0.1 mg/kg) | % AI Hemmungen ([2]; i.v. Dosis 1.0 mg/kg) | % AI Hemmungen ([2]; i.v. Dosis 0.03 mg/kg) | % AI Hemmungen ([2]; i.v. Dosis 0.06 mg/kg)
CCOC(=O)[C@@H](CCc1ccccc1)N[C@@H](C)C(=O)N1c2ccccc2C[C@H]1C(=O)O [Beispiel 6, 1-[N-(lR-Carboäthoxy-3-phenyl-propyl)-S-alanyl]-indolin-2S-carbonsäure-hydrochlorid] | 5.10 | 35% | – | – | –
C[C@H](NC(Cc1ccccc1)C(=O)O)C(=O)N1c2ccccc2C[C@H]1C(=O)O (stereo partly drawn) [Beispiel 7, 1-[N-(1-Carboxy-2-phenyl-äthyl)-S-alanyl]-indolin-2S-carbonsäure] | 7.52 | – | 80% | – | –
CCOC(=O)[C@H](CCc1ccccc1)N[C@@H](C)C(=O)N1c2ccccc2C[C@H]1C(=O)O [Beispiel 4, 1-[N-(lS-Carboäthoxy-3-phenyl-propyl)-S-alanyl]-indolin-2S-carbonsäurehydrochlorid] | – | 95% | – | 33% | 80%
C[C@H](NC(CCc1ccccc1)C(=O)O)C(=O)N1c2ccccc2C[C@H]1C(=O)O (stereo partly drawn) [Beispiel 1, 1-[N-(1-Carboxy-3-phenylpropyl)-S-alanyl]-indolin-2S-carbonsäure] | 8.22 | 80% | – | – | –

From patent publication EP0051301A1, “1-Carboxy-azaalkyl-indolin-2-carboxylic acids, process for preparing them, pharmaceutical compositions containing them and their therapeutical use” (CIBA-GEIGY AG, priority 1980, dated 1982)
